Values of other authors, collected in patent publication US20250057824A1, “NOSE-TO-BRAIN DELIVERY FORMULATION OF NIMODIPINE, PREPARATION AND USE” (Nasal-Phyto (Shanghai) Pharmaceutical Technology Co., Ltd., priority 2023, published 2025).
Converted amounts (≈) assume the structure as drawn.

solubility in water: 2 µg/mL (≈ 4.78 µM)
Structure (SMILES): COCCOC(=O)C1=C(C)NC(C)=C(C(=O)OC(C)C)C1c1cccc([N+](=O)[O-])c1 (stereo not shown) [Nimodipine]
